“And” between values parts separate entries of the source, which are not always exact repeats. Identical values can stand only once.
How the values were obtained:
[1] = system: platelets in platelet-rich plasma; test: Thrombin-induced platelet aggregation in platelet-rich plasma; format: cell-based, human; conditions: for IC50: multiple values = individual measurements
Procedure: (§1) The procedure for this assay is similar to that described in Biological Example 2, above. Briefly, platelet aggregation studies were performed according to the method of Bednar et al. (Bednar, B., Condra, C., Gould, R. J., and Connolly, T. M., Thromb. Res., 77:453-463 (1995)). Platelet-rich plasma (PRP) concentrates prepared from healthy volunteers who were aspirin free for at least 7 days by venipuncture using EDTA as anticoagulant was purchased from Biological Specialties, Inc. (Colmar, Pa.). PPP (platelet-poor-plasma) was obtained by centrifugation of PRP at Max (3,000 rpms) for 15 min at room temperature. PRP was diluted to yield platelet count of 300×10^3 platelets/μL with PPP. For thrombin induced platelet aggregation: 118 μL of 500 mM GPRP-NH2 was added to 12 mL of 300×10^3 platelets before using (to clean the fibrinogen in the plasma.) GPRP was added just before the experiment. 15 μL of test compound solutions were added to 120 μL of platelets 5 min prior the agonist additions. Platelet aggregation was initiated by the addition of agonist shown to achieve 60-70% aggregation. Antagonist potency was estimated as a % inhibition of the control Har peptide or thrombin response to obtain an IC50.
(§2) Where multiple values are listed for a particular compound, said numbers represent individual measurements (tests) for said compound.

[2] = biological target: T1, thrombin receptor (PAR-1) (Homo sapiens, UniProt P25116); test: FLIPR-based calcium-flux assay with human smooth muscle cells (Har peptide agonist); format: cell-based; conditions: HSMC; 30 nM Har (PAR1) peptide agonist; 80-min drug incubation; multiple values = individual measurements
T1 construct: Human aortic smooth muscle cells (HSMC) were purchased from Cascade Biologics; host or cells: human aortic smooth muscle cells (HSMC)
T1 sequence (P25116 22-425): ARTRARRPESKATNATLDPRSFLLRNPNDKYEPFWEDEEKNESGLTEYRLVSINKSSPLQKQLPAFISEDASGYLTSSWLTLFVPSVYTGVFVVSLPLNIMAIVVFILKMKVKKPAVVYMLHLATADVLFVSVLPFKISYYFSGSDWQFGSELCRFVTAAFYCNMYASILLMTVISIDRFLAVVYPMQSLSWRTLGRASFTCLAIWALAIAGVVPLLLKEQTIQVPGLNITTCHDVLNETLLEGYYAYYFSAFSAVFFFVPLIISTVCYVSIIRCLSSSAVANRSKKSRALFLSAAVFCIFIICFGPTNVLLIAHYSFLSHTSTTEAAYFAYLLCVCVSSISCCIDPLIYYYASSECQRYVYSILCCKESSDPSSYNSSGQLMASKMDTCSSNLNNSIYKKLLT
Procedure: Human aortic smooth muscle cells (HSMC) were purchased from Cascade Biologics (Portland, Oreg.) and cultured in M-231 containing smooth muscle cell growth supplement and 1× Antibiotic-Antimycotic.
To determine agonist concentration for compound testing: On the day prior to the assay, 100 μL of cells (2×10^5/mL) were seeded in clear, flat-bottom black-wall, tissue culture treated polystyrene 96-well plates and incubated at 37° C., 5% CO2. On the day of the assay, 50 μL of complete dye loading solution (FLIPR Calcium 3 Kit, Molecular Devices) was added to each well containing 100 μL of culture media. The cells were incubated for 30-45 min at 37° C., in 5% CO2 before initiating the assay on the FLIPR. The agonist effect of PAR1 peptide (S-(p-F-Phe)-Har-L-Har-KY-NH2; Har=homoarginine; referred to herein as “Har” peptide) was tested and the EC50 was determined. The EC60-70 dose was used (30 nM) for compound testing.
Compound testing: On the day prior to the assay, 90 μL of cells (2.2×10^5/mL) were seeded in clear, flat-bottom black-wall, tissue culture treated polystyrene 96-well plates and incubated at 37° C., 5% CO2. On the day of the assay, the test compounds were prepared at 10× in 3% DMSO Hanks buffer and 10 μL was added to each well (final DMSO concentration of 0.3%). The cells were incubated 20 min at 37° C., 5% CO2. Culture medium containing testing compounds was dumped and the cells were washed four times with DPBS containing 0.1% of BSA and re-fed with 80 μL of growth medium. 70 μL of BD (fluorescent) dye was loaded to the cells and incubated 45 min at 37° C. incubator. The plates were equilibrated to room temperature for 15 min. 4× PAR1 peptide (30 nM final concentration) agonist plate and the cell plate were placed in FLIPR's assay chamber. 50 μL agonist was added to the cells and data was recorded for 5 min. Raw fluorescence data was exported for each well and tabulated versus time within an ASCII file. Data was then imported into Excel® and the peak response over basal level was determined. The percent inhibition for each test compound was calculated by the changes of fluorescent density as a % inhibition of the control Har peptide response to obtain an IC50.
(§3) Representative compounds of the present invention were tested according to the procedure described in Biological Example 1 above, with results in Table 8 below. In Table 8 below, where multiple values are listed for a particular compound, said numbers represent individual measurements (tests) for said compound.

washed platelets [3] = test: Thrombin-induced platelet aggregation in washed platelets; format: cell-based, human; conditions: for IC50: Homo sapiens, Platelet
Procedure: (§4) Platelet aggregation studies were performed according to the method of Bednar et al. (Bednar, B., Condra, C., Gould, R. J., and Connolly, T. M., Thromb. Res., 77:453-463 (1995)). Platelet-rich plasma (PRP) concentrates prepared from healthy volunteers who were aspirin free for at least 7 days by venipuncture using ACD-A as anticoagulant was purchased from Biological Specialties, Inc. (Colmar, Pa.). PRP was centrifuged at 730 g for 15 min. The platelet pellet was washed twice in CGS buffer (13 mM sodium citrate, 30 mM glucose, 120 mM NaCl, pH 6.5) containing 1 U/ml apyrase (grade V, Sigma-Aldrich, St. Louis, Mo.), 1 mM EGTA, and re-suspended in Tyrode's buffer (140 mM NaCl, 2.7 mM KCl, 12 mM NaHCO3, 0.76 mM Na2HPO4, 5.5 mM dextrose, 5.0 mM HEPES, 0.2% BSA, pH 7.4). The platelets were diluted to 3×10^8 platelets/ml and kept >45 min at 37° C. before use. 105 μl of washed platelets, 2 mM CaCl2 and […] of fibrinogen (for PAR-1 peptide-induced platelet aggregation only) were added to a 96-well microliter plate. Platelet aggregation was initiated by the addition of serial concentrations of Har peptide or thrombin (Alpha; American Diagnostica, Cat. # 470HT, 2,500 NIH Units/mg). Buffer was added to one set of control wells. The assay plate was stirred constantly and intermittently placed in a microplate reader (Softmax, Molecular Devices, Menlo Park, Calif.) to read optical density (650 nm) at 0 and 5 minutes after the addition of the compound solutions. Aggregation was calculated as the decrease in optical density between the time 0- and 5-min measurements and expressed as % of aggregation.
(§5) For the inhibition assay, platelet aggregation measurements were conducted as described, with the additional step of test compound addition. Compounds were prepared in 100% DMSO and stored. On the day of the experiment, the compounds were diluted in the Tyrode's buffer containing 3% of DMSO as a 10× working solution. 15 μl of test compound solutions were added to 105 μl of platelets 5 min prior to CaCl2 and fibrinogen additions. Platelet aggregation was initiated by the addition of agonist shown to achieve 60-70% aggregation. Antagonist potency was estimated as a % inhibition of the control Har peptide or thrombin response to obtain an IC50.
as §3, with “2” for “1”, “9” for “8”, “9” for “8 below,”

washed platelets [4] = test: Har peptide-induced platelet aggregation in washed platelets; format: cell-based; conditions: Homo sapiens
Procedure: as §4, §5
as §3, with “2” for “1”, “9” for “8”, “9” for “8 below,”

[5] = system: platelets in platelet-rich plasma; test: Har peptide-induced platelet aggregation in platelet-rich plasma; format: cell-based, human; conditions: for IC50: multiple values = individual measurements; for inhibition at 10 µM: 10 μM compound
Procedure: as §1, §2

Compound | IC50 ([1]; Homo sapiens, Platelet) [nM] | IC50 [1] | IC50 [2] | Washed platelet aggregation IC50 (μM) Thrombin (washed platelets [3]) | IC50 (washed platelets [4]) [µM] | IC50 ([5]; Homo sapiens, Platelet) [nM] | IC50 (washed platelets [3]) [µM] | IC50 [5] | inhibition at 10 µM ([5]; Homo sapiens) [%] | inhibition at 10 µM ([1]; Homo sapiens, 10 μM compound) [%]
Cc1sc(C)c2c1COc1cc3c(cc1OC2)C(=N)N(CC(=O)c1cc(C(C)(C)C)c(O)c(C(C)(C)C)c1)C3 [Compound 74] | > 10000 | > 10000 nM | 0.15 µM and 0.16 µM | variable | 0.779 | > 10000 | – | – | – | –
CC(C)(C)c1cc(C(=O)CN2Cc3cc4c(cc3C2=N)OCc2ncccc2CO4)cc(C(C)(C)C)c1O [Compound 49] | – | 690 nM and 2430 nM | 0.019 µM and 0.059 µM and 0.023 µM and 0.038 µM | – | 0.068 | 390 | 0.107 | – | – | –
COc1c(C(C)(C)C)cc(C(=O)CN2Cc3cc4c(cc3C2=N)OCc2ncccc2CO4)cc1C(C)(C)C [Compound 75] | – | 2190 nM and > 10000 nM | 0.39 µM and 0.46 µM | – | 0.183 | 3040 | > 10 | – | – | –
CC(C)(C)c1cc(C(=O)CN2Cc3cc4c(cc3C2=N)OCc2cc([N+](=O)[O-])ccc2CO4)cc(C(C)(C)C)c1O [Compound 84] | 2510 | – | 0.029 µM and 0.047 µM and 0.048 µM and 0.011 µM | – | – | 2470 | – | – | – | –
COc1c(N2CCOCC2)cc(C(=O)CN2Cc3cc4c(cc3C2=N)OCc2cc(F)c(F)cc2CO4)cc1C(C)(C)C [Compound 89] | 4880 | 4610 nM and 6020 nM | 0.29 µM and 0.13 µM | – | – | 1280 | – | 2310 nM | – | –
CC(C)(C)c1cc(C(=O)CN2Cc3cc4c(cc3C2=N)OCC(F)(F)C(F)(F)CO4)cc(C(C)(C)C)c1O [Compound 91] | > 10000 | > 10000 nM | 0.39 µM and 0.07 µM and 0.19 µM | – | – | 12900 | – | – | 26 | –
COC(=O)c1ccc2c(c1)COc1cc3c(cc1OC2)C(=N)N(CC(=O)c1cc(C(C)(C)C)c(O)c(C(C)(C)C)c1)C3 [Compound 80] | > 10000 | > 10000 nM | 0.073 µM and 0.16 µM | – | – | > 10000 | – | 13100 nM | – | –
COc1c(N2CCOCC2)cc(C(=O)CN2Cc3cc4c(cc3C2=N)OCc2cc3c(cc2CO4)OCO3)cc1C(C)(C)C [Compound 59] | – | – | 0.371 µM | – | 1.25 | 6120 | 2.11 | – | – | –
CC(C)(C)c1cc(C(=O)CN2Cc3cc4c(cc3C2=N)OCc2ncccc2CO4)ccc1O [Compound 82] | 2570 | – | 0.11 µM and 0.17 µM | – | – | 640 | – | 930 nM | – | 21
COc1c(N2CCOCC2)cc(C(=O)CN2Cc3cc4c(cc3C2=N)OCc2nccnc2CO4)cc1C(C)(C)C [Compound 58] | 803 | – | 0.103 µM | – | 0.214 | 749 | 0.304 | – | – | –
CC(C)(C)c1cc(C(=O)CN2Cc3cc4c(cc3C2=N)OCC(F)(F)CO4)cc(C(C)(C)C)c1O [Compound 93] | > 10000 | > 10000 nM | 0.27 µM and 0.13 µM | – | – | 2080 | – | 3800 nM | – | –
COc1c(N2CCOCC2)cc(C(=O)CN2Cc3cc4c(cc3C2=N)OCC(F)(F)CO4)cc1C(C)(C)C [Compound 92] | > 10000 | > 10000 nM | 0.53 µM and 0.36 µM | – | – | – | – | – | 24 | –
COC(=O)c1ccc2c(c1)COc1cc3c(cc1OC2)CN(CC(=O)c1cc(N2CCOCC2)c(OC)c(C(C)(C)C)c1)C3=N [Compound 73] | – | 2430 nM and > 10000 nM | 0.047 µM and 0.057 µM | – | 0.446 | 6710 | 0.813 | – | – | –
CC(C)(C)c1cc(C(=O)CN2Cc3cc4c(cc3C2=N)OCc2cccnc2CO4)ccc1O [Compound 83] | > 10000 | > 10000 nM | 0.24 µM and 0.35 µM | – | – | – | – | 840 nM and 1750 nM | – | –
CC(C)(C)c1cc(C(=O)CN2Cc3cc4c(cc3C2=N)OCc2ccccc2CO4)cc(C(C)(C)C)c1O [Compound 47] | 2540 | 2750 nM | 0.04 µM and 0.088 µM | – | – | 2270 | – | 2250 nM | – | –
CC(C)(C)c1cc(C(=O)CN2Cc3cc4c(cc3C2=N)OCc2nccnc2CO4)cc(C(C)(C)C)c1O [Compound 77] | 1230 | 1920 nM and 1550 nM | 0.046 µM and 0.074 µM | – | – | 630 | – | 490 nM and 830 nM | – | –
COc1c(N2CCOCC2)cc(C(=O)CN2Cc3cc4c(cc3C2=N)OCc2ncccc2CO4)cc1C(C)(C)C [Compound 52] | – | – | 0.025 µM | – | 0.172 | – | 0.282 | – | – | –
CC(C)(C)c1cc(C(=O)CN2Cc3cc4c(cc3C2=N)OCc2c(F)ccc(F)c2CO4)cc(C(C)(C)C)c1O [Compound 87] | > 10000 | > 10000 nM | 0.043 µM and 0.02 µM | – | – | 7380 | – | > 10000 nM | – | –
COc1c(N2CCN(C)CC2)cc(C(=O)CN2Cc3cc4c(cc3C2=N)OCc2cccnc2CO4)cc1C(C)(C)C [Compound 71] | 380 | – | 0.064 µM and 0.044 µM | – | – | 290 | – | 480 nM | – | –
COc1c(C(C)(C)C)cc(C(=O)CN2Cc3cc4c(cc3C2=N)OCc2cccnc2CO4)cc1C(C)(C)C [Compound 76] | > 10000 | > 10000 nM | 0.58 µM | – | 0.309 | 2060 | > 10 | – | – | –

— patent US8673890B2, “2,3-dihydro-1H-isoindol-1-imine derivatives useful as thrombin PAR-1 receptor antagonist” (Janssen Pharmaceutica NV, priority 2009, dated 2014)
